From PMC4661537 (2015)

Experiments:
[1] = tested on: Spi-tRNA (RNA, aptamer) GCCCGGAUAGCUCAGUCGGUAGAGCAGCGGCCGGACGCAACUGAAUGAAAUGGUGAAGGACGGGUCCAGGUGUGGCUGCUUCGGCAGUGCAGCUUGUUGAGUAGAGUGUGAGCUCCGUAACUAGUCGCGUCCGGCCGCGGGUCCAGGGUUCAAGUCCCUGUUCGGGCGCCA; experiment: fluorescence activation; settings: K+ 125 mM, Mg2+ 5 mM (folding buffer); fluorescence slightly higher than single Spinach
[2] = tested on: Spi (single Spinach aptamer, 24-2) (RNA, aptamer) GACGCAACUGAAUGAAAUGGUGAAGGACGGGUCCAGGUGUGGCUGCUUCGGCAGUGCAGCUUGUUGAGUAGAGUGUGAGCUCCGUAACUAGUCGCGUC; experiment: fluorescence association kinetics (koff/kon); settings: K+ 125 mM, Mg2+ 5 mM (folding buffer); 40 mM K-HEPES pH 7.5; 40 nM aptamer, DFHBI 200-600 nM; mean over concentrations; biphasic; per site
[3] = tested on: Spi-8R (RNA, aptamer) UAGACGGCAUGGGGAGACGCGACCGAAAUGGUGAAGGACGGGUCCAGUGCUUCGGCACUGUUGAGUAGAGUGUGAGCUCCGUAACUGGUCGCGUCACGUAAGAUGCUCCGGUUAGGGAGACGCGACCGAAAUGGUGAAGGACGGGUCCAGUGCUUCGGCACUGUUGAGUAGAGUGUGAGCUCCGUAACUGGUCGCGUCACUGAUGUACCGUUGAGCAGGGAGACGCGACCGAAAUGGUGAAGGACGGGUCCAGUGCUUCGGCACUGUUGAGUAGAGUGUGAGCUCCGUAACUGGUCGCGUCACUCGCUAGAGCAUGGUUUGGGAGACGCGACCGAAAUGGUGAAGGACGGGUCCAGUGCUUCGGCACUGUUGAGUAGAGUGUGAGCUCCGUAACUGGUCGCGUCACUGGGGCACGCCGUCUGGGGGAGACGCGACCGAAAUGGUGAAGGACGGGUCCAGUGCUUCGGCACUGUUGAGUAGAGUGUGAGCUCCGUAACUGGUCGCGUCACUUACUGCGACCGCAAUAGGGAGACGCGACCGAAAUGGUGAAGGACGGGUCCAGUGCUUCGGCACUGUUGAGUAGAGUGUGAGCUCCGUAACUGGUCGCGUCACGCGCGCAACCGGGUAGAGGGAGACGCGACCGAAAUGGUGAAGGACGGGUCCAGUGCUUCGGCACUGUUGAGUAGAGUGUGAGCUCCGUAACUGGUCGCGUCACGUAACUCACGGCGCUAUGGGAGACGCGACCGAAAUGGUGAAGGACGGGUCCAGUGCUUCGGCACUGUUGAGUAGAGUGUGAGCUCCGUAACUGGUCGCGUC; experiment: fluorescence association kinetics (koff/kon); settings: K+ 125 mM, Mg2+ 5 mM (folding buffer); 40 mM K-HEPES pH 7.5; 10 nM RNA (34.8 nM folded aptamer), DFHBI 200-600 nM; per aptamer; biphasic; per site

CC1=N/C(=C\c2cc(F)c(O)c(F)c2)C(=O)N1C
binding [1]: yes
KD [2]: 303 ± 22 nM
KD [3]: 246 ± 67 nM
